Test results reported in the supplement of paper PMC10307832.

Columns and labels:
Assay in all cases: relative viability (nuclei count vs DMSO), 5 days (fraction); higher = more cells survive
[1] = compound: CCN1CCC(CC1)N2C=C(N=N2)CNC3=CC4=C(C(=CN=C4C(=C3)Cl)C#N)NC5=CC(=C(C=C5)F)Cl [KIN001-266] + CCNC(=O)c1noc(-c2cc(C(C)C)c(O)cc2O)c1-c1ccc(CN2CCOCC2)cc1 [Luminespib] (partner 0.01 µM)
Procedure, shortened: (§1)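 Lung cancer cell lines, seeded in 1536-well plates, were treated the following day by pin tool with a single drug or with five library-drug doses (not always all listed) in √10 steps on top of a fixed anchor-drug dose. Cells were fixed and nuclei stained in one step after 5 days, and nuclei were counted. Relative viability is the nuclei count for treated wells divided by that for vehicle wells, reported as medians of duplicate plates.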

[2] = compound: CCN1CCC(CC1)N2C=C(N=N2)CNC3=CC4=C(C(=CN=C4C(=C3)Cl)C#N)NC5=CC(=C(C=C5)F)Cl [KIN001-266] + COc1cc2c(Oc3ccc(NC(=O)C4(C(=O)Nc5ccc(F)cc5)CC4)cc3F)ccnc2cc1OCCCN1CCOCC1 [Foretinib] (partner 0.25 µM)
Procedure, shortened: as §1

[3] = compound: CCN1CCC(CC1)N2C=C(N=N2)CNC3=CC4=C(C(=CN=C4C(=C3)Cl)C#N)NC5=CC(=C(C=C5)F)Cl [KIN001-266] + Cc1cc(Nc2cc(N3CCN(C)CC3)nc(Sc3ccc(NC(=O)C4CC4)cc3)n2)n[nH]1 [Tozasertib] (partner 0.1 µM)
Procedure, shortened: as §1

[4] = compound: CCN1CCC(CC1)N2C=C(N=N2)CNC3=CC4=C(C(=CN=C4C(=C3)Cl)C#N)NC5=CC(=C(C=C5)F)Cl [KIN001-266] + NC(=O)Nc1cc(-c2cccc(F)c2)sc1C(=O)N[C@H]1CCCNC1 [AZD7762] (partner 0.2 µM)
Procedure, shortened: as §1

Cell Line | relative viability ([1]; first compound 0.08 µM) | relative viability ([1]; first compound 0.253 µM) | relative viability ([1]; first compound 0.8 µM) | relative viability ([1]; first compound 2.53 µM) | relative viability ([1]; first compound 8 µM) | relative viability ([2]; first compound 0.08 µM) | relative viability ([2]; first compound 0.253 µM) | relative viability ([2]; first compound 0.8 µM) | relative viability ([2]; first compound 2.53 µM) | relative viability ([2]; first compound 8 µM) | relative viability ([3]; first compound 0.08 µM) | relative viability ([3]; first compound 0.253 µM) | relative viability ([3]; first compound 0.8 µM) | relative viability ([3]; first compound 2.53 µM) | relative viability ([3]; first compound 8 µM) | relative viability ([4]; first compound 0.08 µM) | relative viability ([4]; first compound 0.253 µM) | relative viability ([4]; first compound 0.8 µM) | relative viability ([4]; first compound 2.53 µM) | relative viability ([4]; first compound 8 µM)
NCI-H358 | 0.496 | 0.251 | 0.237 | 0.306 | 0.123 | 0.728 | 0.734 | 0.629 | 0.631 | 0.397 | 0.107 | 0.129 | 0.132 | 0.0982 | 0.0945 | 0.574 | 0.459 | 0.41 | 0.547 | 0.474
NCI-H441 | 0.32 | 0.354 | 0.328 | 0.286 | 0.302 | 1.04 | 0.889 | 1.02 | 0.781 | 0.689 | 0.75 | 0.737 | 0.557 | 0.56 | 0.261 | 0.941 | 1.2 | 1.11 | 1.07 | 1.19
NCI-H460 | 0.0348 | 0.0385 | 0.0335 | 0.0269 | 0.0404 | 1.01 | 0.973 | 1.02 | 0.936 | 0.941 | 0.553 | 0.423 | 0.333 | 0.54 | 0.121 | 0.543 | 0.679 | 0.681 | 0.554 | 0.524
NCI-H596 | 0.922 | 1.03 | 1.08 | 1.03 | 0.905 | 0.963 | 0.986 | 0.901 | 0.775 | 0.737 | 0.882 | 0.893 | 0.881 | 0.925 | 0.786 | 1.2 | 0.931 | 1.17 | 0.936 | 1.04
NCI-H647 | 0.162 | 0.138 | 0.419 | 0.179 | 0.153 | 1.22 | 1.22 | 1.36 | 1.16 | 0.97 | 0.277 | 0.213 | 0.265 | 0.352 | 0.156 | 0.432 | 0.366 | 0.568 | 0.431 | 0.434
NCI-H650 | 0.847 | 0.902 | 0.838 | 0.822 | 0.81 | 1.07 | 1.02 | 0.98 | 1.04 | 0.988 | 0.791 | 0.713 | 0.74 | 0.732 | 0.672 | 1.09 | 1.17 | 1 | 1.08 | 1.23
NCI-H727 | 0.359 | 0.316 | 0.346 | 0.246 | 0.514 | 0.883 | 0.855 | 0.821 | 0.888 | 0.649 | 0.759 | 0.584 | 0.552 | 0.715 | 0.467 | 0.514 | 0.554 | 0.518 | 0.494 | 0.649
NCI-H838 | 0.27 | 0.284 | 0.328 | 0.2 | 0.186 | 1.03 | 1.09 | 1.06 | 0.928 | 0.717 | 0.266 | 0.299 | 0.257 | 0.254 | 0.22 | 0.945 | 0.83 | 0.886 | 0.914 | 0.924
